System: E. faecalis V583 and FITC-PLG at the anastomotic site
Test: Co-localization of E. faecalis and PLG at the anastomotic site
Type: in vivo, mice
Details: TXA enema POD 1, 2, 3; POD3
From the text: Co-localization of E. faecalis and PLG: Mice underwent anastomotic surgery with postoperative introduction of E. faecalis V583. The mice received post-operative TXA or vehicle enemas as described herein. They received a systemic (intra-peritoneal) injection of 100 L 4 M FITC-labeled PLG one hour prior to sacrifice. Anastomotic tissue was collected in sterile fashion and cryosectioned. Slides were stained with 4′,6-diamidino-2-phenylindole (DAPI) for colonic mucosa. For visualization of microbial organisms, the inventors used probes designed by Miacom Diagnostics, which use a fluorescence in situ hybridization (FISH) beacon-based technology. An E. faecalis-specific probe was labeled with Alexa Fluor 647. Staining was performed overnight per the manufacturer's protocol. Confocal microscopy was performed on a Leica SP5 II AOBS tandem scanner spectral confocal system on a DMI6000 microscope and controlled by LASAF software (version 2.8.3). […] channels were collected at each location using sequential excitation (excitation: 405, 488, and 633; emission: 412-452, 495-537, and 654-755 nm pass bands) on either photomultiplier or HyD hybrid detectors. […]
Co-localization of E. faecalis and plasminogen at the anastomotic site. […] Mice undergoing E. faecalis-mediated anastomotic leak were administered FITC-labeled PLG (as observed by green fluorescence) systemically. […]

Structure (SMILES): NC[C@H]1CC[C@H](C(=O)O)CC1 [TXA, tranexamic acid]
- co-localization of V583 with FITC-PLG at the anastomotic site: effectively prevented co-localization
- penetration of V583 into the colonic mucosa: diminished penetration of V583 into the colonic mucosa
